Assays:
[1] = set-up: species or system cynomolgus monkeys; settings: female, cynomolgus monkey, in vivo, po, 10 mg/kg
Description: The example allows comparison of the pharmacokinetics of sapropterin and the BH4 derivative after a single oral administration in groups of cynomolgus monkeys.
A single dose of sapropterin (10 mg/kg) was administered orally to a first group of female cynomolgus monkeys (3/group) under fasting conditions. A single dose of Compound I (10 mg/kg) was administered orally to second group of female cynomolgus monkeys (3/group) under fasting conditions.
The bioavailability (F) following a 10 mg/kg oral administration to female monkeys was about 9%.

[2] = set-up: species or system Sprague Dawley rats; settings: male, Sprague Dawley, rat, in vivo, po, 100 mg/kg
Description: This example allows for comparison of the pharmacokinetics of the BH4 derivative versus that of BH4 following single oral administration in rats.
Single doses of BH4 (10 and 100 mg/kg) were administered orally to a […] of male Sprague Dawley rats (6 weeks old) under fasting conditions. Single doses of Compound I were administered orally to a […] of male Sprague Dawley rats (6 weeks old) under fasting conditions.
With respect to the administered BH4, the maximum total biopterin concentrations in plasma 2 hrs and 1 hr post-dosing were 108 ng/ml (i.e., about 3 fold the endogenous level) and 1227 ng/ml (i.e., about 30 fold the endogenous level), respectively. […] The ratio of reduced biopterin to total biopterins in plasma (i.e., the reduced-form ratio) was relatively static (73%-96%).

bioavailability (F) [1]	plasma elimination half-life of biopterin [1]	biopterin elimination half-life (t1/2) [2]	SMILES
about 9%	approximately 1.4 hrs	–	C[C@H](O)[C@H](O)[C@H]1CNc2nc(N)[nH]c(=O)c2N1 [sapropterin]
–	–	about 1.1 hr	C[C@H](O)[C@H](O)[C@H]1CNc2nc(N)[nH]c(=O)c2N1 [BH4, (6R)-5,6,7,8-tetrahydro-L-biopterin]

Reference: patent publication US20100009997A1, “METHOD OF TREATING A METABOLIC OR NEUROPSYCHIARTY DISORDER WITH A BH4 DERIVATIVE PRODRUG” (BIOMARIN PHARMACEUTICAL INC., priority 2007, published 2010)
